For experiment [1], the target named is T1, myeloperoxidase (MPO) (Homo sapiens (Human), UniProt P05164). Nature of the experiment: MPO peroxidation assay (Amplex Red assay). It counts as biochemical. As to conditions: potency range class. The method in brief: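 IC50 values come from a four-parameter fit of rates taken from the linear 180-540 s portion of a 15 min kinetic read of resorufin (Ex 535/Em 590 nm). Amplex Red (200 μM) plus 10 mM H2O2 was added after a 10 min room-temperature preincubation of inhibitor with 200 pM MPO and 40 nM H2O2 in 100 mM KPi, pH 7.4.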

In experiment [2] the target is T1, myeloperoxidase (MPO). As to the kind of experiment: MPO chlorination assay (APF assay). As to conditions: potency range class. It counts as biochemical. Summed up:
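Chlorinating activity followed by APF cleavage to fluorescein (485/535 nm, 3 min kinetic read) after adding APF and 10 μM H2O2. Beforehand, 200 pM enzyme, compound and 120 mM NaCl sat 10 min at room temperature in 100 mM KPi, pH 7.4. Initial-rate slopes gave % inhibition; IC50 by Hill-slope fit.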

Each structure is given as a SMILES string.

T1 sequence (P05164 49-745): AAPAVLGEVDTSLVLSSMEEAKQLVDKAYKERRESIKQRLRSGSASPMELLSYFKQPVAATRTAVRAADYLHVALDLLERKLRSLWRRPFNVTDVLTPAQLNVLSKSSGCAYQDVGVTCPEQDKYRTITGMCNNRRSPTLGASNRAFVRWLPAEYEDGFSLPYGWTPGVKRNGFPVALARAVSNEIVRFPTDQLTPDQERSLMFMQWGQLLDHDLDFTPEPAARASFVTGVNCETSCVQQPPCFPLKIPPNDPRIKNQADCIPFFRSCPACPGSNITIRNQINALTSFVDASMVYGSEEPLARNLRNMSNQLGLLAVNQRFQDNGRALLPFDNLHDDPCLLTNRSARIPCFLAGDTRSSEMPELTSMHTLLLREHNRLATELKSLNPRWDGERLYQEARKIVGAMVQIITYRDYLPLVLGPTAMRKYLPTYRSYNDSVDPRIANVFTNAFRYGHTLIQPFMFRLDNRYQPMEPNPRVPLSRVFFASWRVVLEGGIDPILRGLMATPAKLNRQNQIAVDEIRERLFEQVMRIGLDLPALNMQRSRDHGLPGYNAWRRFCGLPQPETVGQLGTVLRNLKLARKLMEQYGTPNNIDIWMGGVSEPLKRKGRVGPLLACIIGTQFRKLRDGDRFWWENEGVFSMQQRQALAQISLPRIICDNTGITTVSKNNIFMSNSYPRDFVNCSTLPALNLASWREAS

Take `C[C@@H]1CN(c2cccc(Cn3cc(Cc4cc(N)nc5[nH]nnc45)cn3)c2)C[C@H](C)N1` [Example 221, 7-{[1-({3-[cis-3,5-Dimethylpiperazin-1-yl]phenyl}methyl)-1H-pyrazol-4-yl]methyl}-3H-[1,2,3]triazolo[4,5-b]pyridin-5-amine]: the IC50 in experiment [1] and in experiment [2] was 1 to 100 nM each time.

As for `Nc1cc(Cc2cnn(Cc3cccc(-c4ccccc4)c3)c2)c2nn[nH]c2n1` [Example 44, 7-((1-([1,1′-Biphenyl]-3-ylmethyl)-1H-pyrazol-4-yl)methyl)-3H-[1,2,3]triazolo[4,5-b]pyridin-5-amine], the IC50 in experiment [1] and in experiment [2] was 1 to 100 nM throughout.

In the case of `Nc1cc(Cc2cnn(-c3cccc(F)c3)c2)c2nn[nH]c2n1` [Example 3, 7-((1-(3-Fluorophenyl)-1H-pyrazol-4-yl)methyl)-3H-[1,2,3]triazolo[4,5-b]pyridin-5-amine], the IC50 in experiment [1] fell in the range of 1 to 100 nM; in experiment [2] it was 101 to 999 nM.

With `COc1cccc(Cn2cc(Cc3cc(N)nc4[nH]nnc34)cn2)c1` [Example 97, 7-((1-(3-Methoxybenzyl)-1H-pyrazol-4-yl)methyl)-3H-[1,2,3]triazolo[4,5-b]pyridin-5-amine], the IC50 in experiment [1] and in experiment [2] was 1 to 100 nM throughout.

In the case of `Nc1cc(Cc2cnn(Cc3ccc(Cn4ccnc4)cc3)c2)c2nn[nH]c2n1` [Example 110, 7-((1-(4-((1H-Imidazol-1-yl)methyl)benzyl)-1H-pyrazol-4-yl)methyl)-3H-[1,2,3]triazolo[4,5-b]pyridin-5-amine], the IC50 in experiment [1] and in experiment [2] was 1 to 100 nM in each case.

`Cn1nc(Cn2cc(Cc3cc(N)nc4[nH]nnc34)cn2)c2ccccc21` [Example 137, 7-({1-[(1-Methyl-1H-indazol-3-yl)methyl]-1H-pyrazol-4-yl}methyl)-3H-[1,2,3]triazolo[4,5-b]pyridin-5-amine]: the IC50 in experiment [1] lay in the range of 1 to 100 nM; in experiment [2], 101 to 999 nM.

For `Nc1cc(Cc2cnn(Cc3cccc(N4CCNC(C(F)(F)F)C4)c3)c2)c2nn[nH]c2n1` (stereo not shown) [Example 222, 7-{[1-({3-[3-(Trifluoromethyl)piperazin-1-yl]phenyl}methyl)-1H-pyrazol-4-yl]methyl}-3H-[1,2,3]triazolo[4,5-b]pyridin-5-amine], the IC50 in experiment [1] and in experiment [2] was 101 to 999 nM in each case.

As to `Nc1cc(Cn2nnc3cc(Cl)ccc32)c2nn[nH]c2n1` [Example 168, 7-[(5-Chloro-1H-1,2,3-benzotriazol-1-yl)methyl]-3H-[1,2,3]triazolo[4,5-b]pyridin-5-amine], the half-maximal inhibitory concentration (IC50) in experiment [1] lay in the range of 1 to 100 nM; in experiment [2], 101 to 999 nM.

On to `Nc1cc(Cc2cnn(Cc3cccc(N4CCNCC4)c3)c2)c2nn[nH]c2n1` [Example 217, 7-[(1-{[3-(Piperazin-1-yl)phenyl]methyl}-1H-pyrazol-4-yl)methyl]-3H-[1,2,3]triazolo[4,5-b]pyridin-5-amine], for which the IC50 lay within 1 to 100 nM in experiment [1] and 101 to 999 nM in experiment [2].

As for `CC(C)(C)c1ccc(Cn2cc(Cc3cc(N)nc4[nH]nnc34)cn2)cc1` [Example 113, 7-((1-(4-(tert-Butyl)benzyl)-1H-pyrazol-4-yl)methyl)-3H-[1,2,3]triazolo[4,5-b]pyridin-5-amine], the IC50 in experiment [1] is 1 to 100 nM; in experiment [2], 101 to 999 nM.

`Nc1cc(Cc2cnn(Cc3cc([C@@H]4CCNC4)ccc3OC(F)F)c2)c2nn[nH]c2n1` [Example 200, 7-[(1-{[2-(Difluoromethoxy)-5-[(3 S)-pyrrolidin-3-yl]phenyl]methyl}-1H-pyrazol-4-yl)methyl]-3H-[1,2,3]triazolo[4,5-b]pyridin-5-amine]: the IC50 in experiment [1] and in experiment [2] was 1 to 100 nM each time.

`Nc1cc(Cn2nnc3ccccc32)c2nn[nH]c2n1` [Example 160, 7-(1H-1,2,3-Benzotriazol-1-ylmethyl)-3H-[1,2,3]triazolo[4,5-b]pyridin-5-amine]: the IC50 in experiment [1] and in experiment [2] was 1 to 100 nM in each case.

For `COC(=O)CNCc1cccc(Oc2cccc(Cn3cc(Cc4cc(N)nc5[nH]nnc45)cn3)c2)c1` [Example 232, Methyl 2-({[3-(3-{[4-({5-amino-3H-[1,2,3]triazolo[4,5-b]pyridin-7-yl}methyl)-1H-pyrazol-1-yl]methyl}phenoxy)phenyl]methyl}amino)acetate], the results for the IC50 in experiment [1] and in experiment [2] were 1 to 100 nM and 101 to 999 nM, respectively.

As for `Nc1cc(Cc2cnn(CC3CCN(Cc4ccccc4)C3)c2)c2nn[nH]c2n1` (stereo not shown) [Example 184, 7-({1-[(1-Benzylpyrrolidin-3-yl)methyl]-1H-pyrazol-4-yl}methyl)-3H-[1,2,3]triazolo[4,5-b]pyridin-5-amine], the IC50 was 1 to 100 nM in experiment [1] and 101 to 999 nM in experiment [2].

In the case of `Nc1cc(Cc2cnn(Cc3cccc(Cc4ccccc4)c3)c2)c2nn[nH]c2n1` [Example 67, 7-((1-(3-Benzylbenzyl)-1H-pyrazol-4-yl)methyl)-3H-[1,2,3]triazolo[4,5-b]pyridin-5-amine], the IC50 in experiment [1] and in experiment [2] was 1 to 100 nM in each case.

For the compound `Nc1cc(Cc2cnn(-c3ccccc3)n2)c2nn[nH]c2n1` [Example 6, 7-((2-Phenyl-2H-1,2,3-triazol-4-yl)methyl)-3H-[1,2,3]triazolo[4,5-b]pyridin-5-amine], the IC50 in experiment [1] and in experiment [2] was 101 to 999 nM throughout.

Consider `Nc1cc(Cc2cnn(Cc3cccc(O[C@H]4CN[C@H](CO)C4)c3)c2)c2nn[nH]c2n1` [Example 248, [(2S,4R)-4-(3-{[4-({5-Amino-3H-[1,2,3]triazolo[4,5-b]pyridin-7-yl}methyl)-1H-pyrazol-1-yl]methyl}phenoxy)pyrrolidin-2-yl]methanol], for which the half-maximal inhibitory concentration (IC50) lay in the range of 1 to 100 nM in experiment [1] and 101 to 999 nM in experiment [2].

With `Nc1cc(Cc2cnn(-c3cccc(Cl)c3)c2)c2nn[nH]c2n1` [Example 7, 7-((1-(3-Chlorophenyl)-1H-pyrazol-4-yl)methyl)-3H-[1,2,3]triazolo[4,5-b]pyridin-5-amine], the IC50 in experiment [1] and in experiment [2] was 1 to 100 nM throughout.

Turning to `Nc1cc(Cc2cnn(Cc3ccc(C(=O)NCc4ccccn4)cc3)c2)c2nn[nH]c2n1` [Example 80, 4-{[4-({5-Amino-3H-[1,2,3]triazolo[4,5-b]pyridin-7-yl}methyl)-1H-pyrazol-1-yl]methyl}-N-(pyridin-2-ylmethyl)benzamide], the IC50 lay within 1 to 100 nM in experiment [1] and 101 to 999 nM in experiment [2].

As to `CCCC1C[C@@H](c2cccc(Cn3cc(Cc4cc(N)nc5[nH]nnc45)cn3)c2)CN1` (stereo partly drawn) [Example 204, 7-{[1-({3-[(3S)-5-propylpyrrolidin-3-yl]phenyl}methyl)-1H-pyrazol-4-yl]methyl}-3H-[1,2,3]triazolo[4,5-b]pyridin-5-amine], the IC50 in experiment [1] and in experiment [2] was 1 to 100 nM throughout.

Regarding `Nc1cc(Cc2cnn(Cc3ccc4[nH]c(=O)ccc4c3)c2)c2nn[nH]c2n1` [Example 132, 6-((4-((5-Amino-3H-[1,2,3]triazolo[4,5-b]pyridin-7-yl)methyl)-1H-pyrazol-1-yl)methyl)quinolin-2(1H)-one], the IC50 in experiment [1] and in experiment [2] was 1 to 100 nM in each case.

Turning to `CN1CC[C@@H](Oc2cccc(Cn3cc(Cc4cc(N)nc5[nH]nnc45)cn3)c2)C1` [Example 241, 7-({1-[(3-{[(3R)-1-Methylpyrrolidin-3-yl]oxy}phenyl)methyl]-1H-pyrazol-4-yl}methyl)-3H-[1,2,3]triazolo[4,5-b]pyridin-5-amine], the IC50 lay within 1 to 100 nM in experiment [1] and 101 to 999 nM in experiment [2].

Take `Nc1cc(Cc2cnn(Cc3ccc4ncsc4c3)c2)c2nn[nH]c2n1` [Example 180, 7-{[1-(1,3-Benzothiazol-6-ylmethyl)-1H-pyrazol-4-yl]methyl}-3H-[1,2,3]triazolo[4,5-b]pyridin-5-amine]: the IC50 in experiment [1] was 1 to 100 nM; in experiment [2], 101 to 999 nM.

For the compound `Nc1cc(Cc2cnn(Cc3cccc4ccccc34)c2)c2nn[nH]c2n1` [Example 41, 7-((1-(Naphthalen-1-ylmethyl)-1H-pyrazol-4-yl)methyl)-3H-[1,2,3]triazolo[4,5-b]pyridin-5-amine], the IC50 in experiment [1] and in experiment [2] was 1 to 100 nM throughout.

For the compound `Nc1cc(Cc2cnn(Cc3cccc(Oc4ccccc4)c3)c2)c2nn[nH]c2n1` [Example 106, 7-((1-(3-Phenoxybenzyl)-1H-pyrazol-4-yl)methyl)-3H-[1,2,3]triazolo[4,5-b]pyridin-5-amine], the IC50 in experiment [1] and in experiment [2] was 1 to 100 nM in each case.

With `Nc1cc(Cc2cnn(Cc3cccc([C@@H]4CNC(=O)C4)c3)c2)c2nn[nH]c2n1` [Example 189, (R)-4-(3-((4-((5-Amino-3H-[1,2,3]triazolo[4,5-b]pyridin-7-yl)methyl)-1H-pyrazol-1-yl)methyl)phenyl)pyrrolidin-2-one], the figures for the IC50 in experiment [1] and in experiment [2] were 1 to 100 nM and 101 to 999 nM, respectively.

With `CN(C)Cc1cccc(Cn2cc(Cc3cc(N)nc4[nH]nnc34)cn2)c1` [Example 255, 7-{[1-({3-[(Dimethylamino)methyl]phenyl}methyl)-1H-pyrazol-4-yl]methyl}-3H-[1,2,3]triazolo[4,5-b]pyridin-5-amine], the IC50 in experiment [1] and in experiment [2] was 1 to 100 nM throughout.

In the case of `Nc1cc(Cc2cnn(Cc3ccc4c(c3)C(C(F)(F)F)NCC4)c2)c2nn[nH]c2n1` (stereo not shown) [Example 262, 7-[(1-{[1-(Trifluoromethyl)-1,2,3,4-tetrahydroisoquinolin-7-yl]methyl}-1H-pyrazol-4-yl)methyl]-3H-[1,2,3]triazolo[4,5-b]pyridin-5-amine], the IC50 in experiment [1] and in experiment [2] was 101 to 999 nM each time.

On to `Nc1cc(Cc2cnn(Cc3cccc(C4CCNCC4F)c3)c2)c2nn[nH]c2n1` (stereo not shown) [Example 216, 7-[(1-{[3-(3-Fluoropiperidin-4-yl)phenyl]methyl}-1H-pyrazol-4-yl)methyl]-3H-[1,2,3]triazolo[4,5-b]pyridin-5-amine], for which the IC50 in experiment [1] and in experiment [2] was 1 to 100 nM each time.

(Values after patent US10407422B2, “Triazolopyridine inhibitors of myeloperoxidase” (priority 2015, dated 2019).)
